In patent US7053088B2, “Vanilloid receptor ligands and their use in treatments” (Amgen Inc., priority 2002, dated 2006) one finds melting point data, which are given here for 35 compounds.

SMILES strings stand for the structures. Structures can show the parent of a compound that is named as a salt.

Usually melting point stands for the temperature of the solid-liquid transition.

As for `CC(C)(C)c1ccc(-c2cc(Nc3ccc4c(c3)OCCO4)nc(N)n2)cc1` (as salt: hydrochloride) [[2-Amino-6-(4-tert-butylphenyl)pyrimidin-4-yl]-(2,3-dihydrobenzo[1,4]-dioxin-6-yl)amine hydrochloride], the melting point was 221 to 224 °C.
In turn, `CC(=O)N1CC(C)(C)c2ccc(Nc3cc(-c4ccc(C(F)(F)F)cc4)ncn3)cc21` [1-{3,3-Dimethyl-6-[6-(4-trifluoromethylphenyl)pyrimidin-4-ylamino]-2,3-dihydroindol-1-yl}ethanone] displayed a melting point of 227 to 230 °C.
`OCCOc1ccc(Nc2cc(-c3ccc(C(F)(F)F)cc3)ncn2)cn1` [2-{5-[6-(4-Trifluoromethylphenyl)pyrimidin-4-ylamino]pyridin-2-yloxy}ethanol] had a melting point of 189.5 to 190.5 °C.
For the compound `Cc1cc(O)nc2cc(Nc3cc(-c4ccc(C(F)(F)F)cc4)ncn3)ccc12.Cl` [4-Methyl-7-{[6-(4-trifluoromethylphenyl)pyrimidin-4-yl]amino}quinolin-2-ol, hydrochloride], the melting point is 373 °C (dec.).
`CC(C)(C)c1ccc(-c2cc(Nc3ccc4c(c3)CCCC4=O)ncn2)cc1` [6-[6-(4-tert-butylphenyl)pyrimidin-4-ylamino]-3,4-dihydro-2H-naphthalen-1-one] returned a melting point of 230 to 232 °C.
As for `Oc1ccc2ccc(Nc3cc(-c4ccc(C(F)(F)F)cc4)ncn3)cc2n1` [7-[6-(4-Trifluoromethylphenyl)pyrimidin-4-ylamino]quinolin-2-ol], the melting point was 337 °C (dec.).
As to `FC(F)(F)c1ccc(-c2cc(Nc3ccc4[nH]ncc4c3)ncn2)cc1` [(1H-indazol-5-yl)-[6-(4-trifluoromethylphenyl)pyrimidin-4-yl]amine], the melting point was in the range of 224 to 226 °C.
Then `FC(F)(F)c1ccc(-c2cc(Nc3ccc4c(c3)OCCO4)ncn2)cc1` [(2,3-dihydrobenzo[1,4]dioxin-6-yl)-[6-(4-trifluoromethylphenyl)pyrimidin-4-yl]amine], with 167 to 168 °C; and `FC(F)(F)c1ccc(-c2cc(Nc3ccc4ccc(Cl)nc4c3)ncn2)cc1` [(2-Chloroquinolin-7-yl)-[6-(4-trifluoromethylphenyl)pyrimidin-4-yl]amine], with 233 °C; and `FC(F)(F)c1ccc(-c2cc(Nc3cccc4ccc(Cl)nc34)ncn2)cc1` [(2-Chloroquinolin-8-yl)-[6-(4-trifluoromethylphenyl)pyrimidin-4-yl]amine], with 240 °C.
To `COc1ccc2ccc(Nc3cc(-c4ccc(C(F)(F)F)cc4)ncn3)cc2n1` [(2-Methoxyquinolin-7-yl)-[6-(4-trifluoromethylphenyl)pyrimidin-4-yl]amine] belongs 199 °C; to `FC(F)(F)c1ccc(-c2cc(Nc3cccnc3Cl)ncn2)cc1` [(2-chloropyridin-3-yl)-[6-(4-trifluoromethylphenyl)pyrimidin-4-ylamine], 134 to 135 °C.
To `Cc1nc2cc(Nc3cc(-c4ccc(C(F)(F)F)cc4)ncn3)ccc2s1` [(2-methylbenzothiazol-5-yl)-[6-(4-trifluoromethylphenyl)pyrimidin-4-yl]amine] belongs 219.5 to 220.5 °C; to `FC(F)(F)c1ccc(-c2cc(Nc3ccc(Cl)c(Cl)c3)ncn2)cc1` [(3,4-dichlorophenyl)-[6-(4-trifluoromethylphenyl)pyrimidin-4-yl]amine], 178 to 180 °C; to `Cc1ccc(Nc2cc(-c3ccc(C(F)(F)F)cc3)ncn2)cc1C` [(3,4-dimethylphenyl)-[6-(4-trifluoromethylphenyl)pyrimidin-4-yl]amine], 154 to 156 °C.
`CS(=O)(=O)c1cccc(Nc2cc(-c3ccc(C(F)(F)F)cc3)ncn2)c1` [(3-Methanesulfonylphenyl)-[6-(4-trifluoromethylphenyl)pyrimidin-4-yl]amine] had a melting point of 204 to 205 °C.
In turn, `CSc1cccc(Nc2cc(-c3ccc(C(F)(F)F)cc3)ncn2)c1` [(3-methylsulfanylphenyl)-[6-(4-trifluoromethylphenyl)pyrimidin-4-yl]amine] came in with a melting point of 130 to 132 °C.
To `CC(C)(C)c1ccc(-c2cc(Nc3ccc4nn[nH]c4c3)ncn2)cc1` [(3H-benzotriazol-5-yl)-[6-(4-tert-butylphenyl)pyrimidin-4-yl]amine] belongs 250 to 252 °C.
To `FC(F)(F)c1ccc(-c2cc(Nc3ccc(Cl)c(C(F)(F)F)c3)ncn2)cc1` [(4-chloro-3-trifluoromethylphenyl)-[6-(4-trifluoromethylphenyl)pyrimidin-4-yl]amine] belongs 172 to 175 °C; to `FC(F)(F)c1ccc(-c2cc(Nc3ccc(Cl)cc3)ncn2)cc1` [(4-chlorophenyl)-[6-(4-trifluoromethylphenyl)pyrimidin-4-yl]amine], 193 to 196 °C.
`FC(F)(F)c1ccc(-c2cc(Nc3ccc4c(n3)NCCC4)ncn2)cc1` [(5,6,7,8-tetrahydro[1,8]naphthyridin-2-yl)-[6-(4-trifluoromethylphenyl)pyrimidin-4-yl]amine] had a melting point of 168 °C.
To `COc1ccc(Nc2cc(-c3ccc(C(F)(F)F)cc3)ncn2)cn1` [(6-methoxypyridin-3-yl)-[6-(4-trifluoromethylphenyl)pyrimidin-4-yl]amine] belongs 123 to 127 °C.
As for `FC(F)(F)c1ccc(-c2cc(Nc3ccc4scnc4c3)ncn2)cc1` [Benzothiazol-5-yl-[6-(4-trifluoromethylphenyl)pyrimidin-4-yl]amine], the melting point was in the range of 192.1 to 192.2 °C.
Then `CC(C)(C)c1ccc(-c2cc(Nc3ccc4ncsc4c3)nnc2-c2ccccc2)cc1` [Benzothiazol-6-yl-[5-(4-tert-butylphenyl)-6-phenylpyridazin-3-yl]amine], with 293 to 295 °C; and `FC(F)(F)c1ccc(-c2cc(Nc3ccc4ncsc4c3)nnc2Cl)cc1` [Benzothiazol-6-yl-[6-chloro-5-(4-trifluoromethylphenyl)pyridazin-3-yl]amine], with 206.3 °C (dec.).
`FC(F)(F)c1ccc(-c2cc(Nc3ccc4cc[nH]c4c3)ncn2)cc1` [Example 42]: the melting point was 231 to 232 °C.
The compound `FC(F)(F)c1ccc(-c2cc(Nc3cccc4[nH]ccc34)ncn2)cc1` [Example 43] displayed a melting point of 222 to 224 °C.
Then `CC(C)(C)c1ccc(-c2cc(Nc3cccc4[nH]ccc34)ncn2)cc1` [Example 46], with 241 to 242 °C.
`CC(C)(C)c1ccc(-c2cc(Nc3cnc4ccccc4c3)ncn2)cc1` [Example 47]: the melting point was 227 to 229 °C.
`CC(C)(C)c1ccc(-c2cc(Nc3ccc4cc[nH]c4c3)ncn2)cc1` [Example 48] displayed a melting point of 194 to 196 °C.
The compound `FC(F)(F)c1ccc(-c2cc(Nc3cnc4ccccc4c3)ncn2)cc1` [Example 50] came in with a melting point of 262 to 263 °C.
Then `CC(C)(C)c1ccc(-c2cc(Nc3ccc4[nH]ccc4c3)ncn2)cc1` [Example 54], with 238 to 240 °C; and `Cc1c(Cl)cccc1Nc1cc(-c2ccc(C(F)(F)F)cc2)ncn1` [Example 57], with 148 to 150 °C.
Then `Cc1ccc(Nc2cc(-c3ccc(C(F)(F)F)cc3)ncn2)cc1` [Example 60], with 159 to 160 °C; and `Cc1ccccc1Nc1cc(-c2ccc(C(F)(F)F)cc2)ncn1` [Example 64], with 117 to 119 °C.
